In patent publication US8785608B2, “Crystalline heteroaromatic fluoroglycoside hydrates, pharmaceuticals comprising these compounds and their use” (Sanofi, priority 2009, dated 2014):

Key:
Format in all cases: physicochemical
[1] = Long term storage stability in glass vials (chemical stability); conditions: for Puirity (area %) / Total increase (area %): +40° C.
Description: The following tables 2 and 3 show data for the storage stability of crystalline compound of formula I in comparison to amorphous material of formula II. Samples of the compounds of formula I and II were packed into glass vials. Chemical stability was monitored over a period up 28 days under different conditions as indicated at each table.

[2] = Water vapour sorption (DVS), hygroscopicity; conditions: 80% r.h. (25° C.)
Protocol: The water sorption experiments were performed with a SPS11-10μ (Projekt Messtechnik). Open aluminium pans were used and the measurements were performed at 25° C. The measured data was evaluated via the software Excel (Microsoft).

[3] = Humidity-resolved XRPD in humidity chamber (phase transitions); conditions: 25° C.
Protocol: The samples were subjected to a pre-defined humidity program lasting 48 hours in an SMS VGI-2000 chamber at a constant temperature of 25° C. XRPD patterns were collected continuously with a data collection time of between 6 and 11 min. (The amorphous sample was treated with the humidity-program reversed: first rising the humidity to 95%, then lowering it to 0% and rising to 95% again.).

[4] = open glass vials, 75% relative humidity, 7 d
[5] = open glass vials, 75% relative humidity, 14 d
[6] = open glass vials, 75% relative humidity, 28 d
[7] = open glass vials, 75% relative humidity, Initial

SMILES: CC(C)c1[nH]nc(O[C@@H]2O[C@H](CO)[C@@H](F)[C@H](O)[C@H]2O)c1Cc1ccc(CCCC(=O)NC(CO)(CO)CO)cc1 [Amorphous sample, 4-{4-[3-((2S,3R,4R,5S,6R)-5-Fluoro-3,4-dihydroxy-6-hydroxymethyl-tetrahydro-pyran-2-yloxy)-5-isopropyl-1H-pyrazol-4-ylmethyl]-phenyl}-N-(2-hydroxy-1,1-bis-hydroxymethyl-ethyl)-butyramide, reference compound]
- Puirity (area %) ([1]; closed glass vials, 7 d): 96.5 area %
- Total increase (area %) ([1]; closed glass vials, 7 d): 0.5 area %
- Puirity (area %) ([1]; closed glass vials, 14 d): 96.1 area %
- Total increase (area %) ([1]; closed glass vials, 14 d): 0.9 area %
- Puirity (area %) ([1]; closed glass vials, 28 d): 95.6 area %
- Total increase (area %) ([1]; closed glass vials, 28 d): 1.4 area %
- Puirity (area %) ([1]; closed glass vials, Initial): 97.0 area %
- Puirity (area %) [1, 4]: 96.2 area %
- Total increase (area %) [1, 4]: 0.5 area %
- Puirity (area %) [1, 5]: 95.9 area %
- Total increase (area %) [1, 5]: 1.1 area %
- Puirity (area %) [1, 6]: 95.5 area %
- Total increase (area %) [1, 6]: 1.5 area %
- Puirity (area %) [1, 7]: 97.0 area %

SMILES: CC(C)c1[nH]nc(O[C@@H]2O[C@H](CO)[C@@H](F)[C@H](O)[C@H]2O)c1Cc1ccc(CCCC(=O)NC(CO)(CO)CO)cc1 [Crystalline hydrate I]
- chemical stability during storage ([1]; 40° C. under dry conditions (closed vials) and 75% r.h): better chemical stability
- Puirity (area %) ([1]; closed glass vials, 7 d): 97.2 area %
- Total increase (area %) ([1]; closed glass vials, 7 d): 0.3 area %
- Puirity (area %) ([1]; closed glass vials, 14 d): 97.1 area %
- Total increase (area %) ([1]; closed glass vials, 14 d): 0.4 area %
- Puirity (area %) ([1]; closed glass vials, 28 d): 97.0 area %
- Total increase (area %) ([1]; closed glass vials, 28 d): 0.5 area %
- Puirity (area %) ([1]; closed glass vials, Initial): 97.5 area %
- Puirity (area %) [1, 4]: 97.3 area %
- Total increase (area %) [1, 4]: ≦0.2 area %
- Puirity (area %) [1, 5]: 97.3 area %
- Total increase (area %) [1, 5]: ≦0.2 area %
- Puirity (area %) [1, 6]: 97.3 area %
- Total increase (area %) [1, 6]: ≦0.2 area %
- Puirity (area %) [1, 7]: 97.3 area %
- hygroscopicity compared to the amorphous form [2]: less hygroscopic
- relative humidity at which starting phase B transformed to phase C ([3]; humidity lowered): about 2%
- relative humidity at which phase D transformed back into the starting phase ([3]; humidity raised): around 20 % rel. hum.
- relative humidity at which intermediate phase D formed ([3]; humidity raised again): about 10%
